One block for each molecule: values may come before it.
What was measured:
[1] = PET glycolysis in EG with catalyst (microwave); settings: 190 °C
Procedure: To establish an economical and efficient PET upcycling process, a chemical PET depolymerization process is required. […] A conventional PET glycolysis method mainly used a heavy metal catalyst. The use of a metal catalyst may have an adverse effect on the biological process of the integrated process and have adverse environmental effects, so glycolysis was performed in a microwave digestion system using betaine instead of a metal catalyst. Specifically, 3.5 to 11.5 g of granular PET and a specific amount of EG were reacted using betaine as a catalyst at 190° C. for 30 to 120 minutes. To maintain the reaction conditions, a microwave digester (Milestone, Shelton, CT) with a thermocouple and magnetic stirrer function was used, and the reaction was performed in a 100 mL reaction vessel for exclusive use of a microwave digester.
To determine the glycolysis effect of betaine, first, the input amount of a substrate was optimized. Glycolysis was performed at 190° C. for 30 minutes by adding 0.5% (catalyst/PET, w/w ratio) betaine to a PET substrate and an EG solvent at a molar ratio (PET:EG) of 1:3, 1:4, 1:5, 1:6, 1:10, or 1:20. Here, the major product BHET and a by-product MHET were produced. The BHET and MHET concentrations were measured by liquid chromatography. As a result, it was confirmed that the highest yield was obtained under a substrate input condition corresponding to a PET:EG molar ratio of 1:5. However, considering the concentration of the final product, it was confirmed that the yield was even higher under the substrate input condition corresponding to the PET:EG molar ratio of 1:4. […] Accordingly, the substrate input condition corresponding to a PET:EG molar ratio of 1:4 was selected, and further conditions were established (Table 2).
To confirm the catalytic effect on the input amount of betaine, betaine corresponding to 0, 0.1, 0.5, 1% (catalyst/PET, w/w ratio) was added, and glycolysis was performed at 190° C. for 30 minutes. As a result, it was confirmed that the condition of adding betaine corresponding to 0.5% (catalyst/PET, w/w ratio) is optimal. Accordingly, this condition was selected, and further conditions were established (Table 2)
Next, to confirm the effect by glycolysis reaction time, the reaction was performed at 190° C. under various reaction time conditions of 30, 60, 90, and 120 minutes. As a result, it was confirmed that 60 minutes is the optimal condition. […] Afterward, in a biological process, the PET glycolysis product that had been produced under the above conditions was used as a substrate (Table 2). […]
To analyze a PET glycolysis product using betaine as a catalyst, high performance liquid chromatography (HPLC) analysis was performed. HPLC analysis conditions are as follows. As a column, a C18 column (OpitmaPak C18-51001546, 5 μm, 150 mm×4.6 mm) was used, and a column temperature was maintained at 25° C. during the analysis. Two mobile phases, A and B, were used, wherein A is 0.1% trifluoroacetic acid in distilled water, and B is methanol. During the analysis at a flow rate of 1 mL/min for 27 minutes, the proportion of the mobile phase B was maintained at 5% at 0 to 2 minutes, and the proportion of the mobile phase B was changed from 5 to 57% at 2 to 18 minutes. At 18 to 22 minutes, the proportion of the mobile phase B was changed from 57 to 5%. Finally, at 22 to 27 minutes, the proportion of the mobile phase B was maintained at 5%. Chromatography was performed at a wavelength of 254 nm using a UV/Vis detector.

[2] = molecular target: T1, IsPETase^Mut (Piscinibacter sakaiensis, UniProt A0A0K8P6T7, D186H/R280A/S121E); assay: Inhibitory effect of catalysts on IsPETase^Mut enzyme reaction; assay type: biochemical, Ideonella sakaiensis; settings: 1 mM; enzyme 2.3 U/L; substrate BHET; 50 mM sodium phosphate buffer (pH 8); 40 °C, 15 minutes
T1 construct: His tag (pET28a vector) (N); made in house; host or cells: E. coli BL21(DE3)
Procedure: (§1) To confirm whether the metal catalysts used in conventional PET glycolysis and betaine, which is an eco-friendly catalyst selected in this study, can have inhibitory effects on enzymatic hydrolysis, IsPETase^Mut and IsMHETase^Mut enzyme experiments were performed using 1 mM each of betaine, Ca^2+, Co^2+, Cu^2+, Fe^2+, Mg^2+, Mn^2+, Ni^2+, pb^2+, Zn^2+, and Li^+. The experiments were performed under conditions including an enzyme concentration of 2.3 U/L, 2.5 mg each of the substrates BHET and MHET, 50 mM sodium phosphate buffer (pH 8), and a volume of 500 μL. After performing the reaction at 40° C. for 15 minutes, all samples were diluted in methanol and centrifuged at 25,188 g for 10 minutes, followed by analyzing the supernatant through high performance liquid chromatography (HPLC). […] Therefore, the product of PET glycolysis using betaine may be used in enzymatic hydrolysis.

[3] = molecular target: T2, IsMHETase^Mut (Piscinibacter sakaiensis, UniProt A0A0K8P8E7, W397A); assay: Inhibitory effect of catalysts on IsMHETase^Mut enzyme reaction; assay type: biochemical, Ideonella sakaiensis; settings: 1 mM; enzyme 2.3 U/L; substrate MHET; 50 mM sodium phosphate buffer (pH 8); 40 °C, 15 minutes
T2 construct: His tag (pET28a vector) (N); made in house; host or cells: E. coli BL21(DE3)
Procedure: as §1

[4] = pH of 50 mM sodium phosphate buffer after adding TPA; assay type: physicochemical; settings: TPA 4 g/L in 50 mM sodium phosphate buffer (pH 8)
Procedure: Based on the defined enzyme input amounts, a hydrolase reaction was performed using the product of PET glycolysis, in which betaine was used, as a substrate. Accordingly, the efficient input amounts of the IsPETase^Mut and IsMHETase^Mut enzymes relative to substrates were to be confirmed without wasting the enzymes. The reaction conditions included a PET glycolysis product including 10 g/L of BHET as a substrate, 50 mM sodium phosphate buffer (pH 8), and a volume of 500 μL. After the reaction was performed at 40° C. for 6 hours, 30 min, 1 hr, 3 hr, and 6 hr, samples were diluted in methanol and centrifuged at 25,188 g for 10 minutes, and followed by analyzing the supernatant through high performance liquid chromatography (HPLC). As a result, in FIG. 6c, when the enzyme input amounts are 2.3 U/L and 4.5 U/L, compared to 9.0 U/L, it was confirmed that the amount of the product TPA is low. As the reaction progressed, it was expected that the pH was lowered and the enzyme activity was lost due to the influence of the product TPA. First, to confirm how low the pH is under the enzymatic hydrolysis reaction conditions due to the influence of TPA, TPA was added at a concentration of 0 to 10 g/L under the condition of 50 mM sodium phosphate buffer (pH 8). As a result, in FIG. 6d, the pHs of all samples were measured with a pH meter and visually confirmed with pH paper. […]

[5] = PET film; pH 7.0; 30 °C; 18 h; Yoshida et al.; cited from earlier work
[6] = PET/EG 1:4, catalyst/PET 0.5 wt %, 60 min
[7] = PET/EG 1:3, catalyst/PET 0.5 wt %, 30 min
[8] = PET/EG 1:4, catalyst/PET 0.1 wt %, 30 min
[9] = PET/EG 1:4, catalyst/PET 0.5 wt %, 30 min
[10] = PET/EG 1:4, catalyst/PET 0.5 wt %, 90 min
[11] = PET/EG 1:4, catalyst/PET 0.5 wt %, 120 min
[12] = PET/EG 1:4, catalyst/PET 1 wt %, 30 min
[13] = PET/EG 1:5, catalyst/PET 0.5 wt %, 30 min
[14] = PET/EG 1:6, catalyst/PET 0.5 wt %, 30 min
[15] = PET/EG 1:10, catalyst/PET 0.5 wt %, 30 min
[16] = PET/EG 1:20, catalyst/PET 0.5 wt %, 30 min

T1 sequence (A0A0K8P6T7 other isoform, or with tags, fused parts or gaps S121E/D186H/R280A): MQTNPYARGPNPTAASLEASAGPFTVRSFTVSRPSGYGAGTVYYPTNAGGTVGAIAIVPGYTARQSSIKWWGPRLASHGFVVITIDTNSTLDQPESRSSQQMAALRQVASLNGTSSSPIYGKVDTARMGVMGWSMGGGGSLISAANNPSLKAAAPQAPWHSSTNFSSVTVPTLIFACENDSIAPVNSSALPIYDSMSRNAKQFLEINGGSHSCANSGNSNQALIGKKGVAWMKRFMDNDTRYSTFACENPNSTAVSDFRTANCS
T2 sequence (A0A0K8P8E7 other isoform, or with tags, fused parts or gaps W397A): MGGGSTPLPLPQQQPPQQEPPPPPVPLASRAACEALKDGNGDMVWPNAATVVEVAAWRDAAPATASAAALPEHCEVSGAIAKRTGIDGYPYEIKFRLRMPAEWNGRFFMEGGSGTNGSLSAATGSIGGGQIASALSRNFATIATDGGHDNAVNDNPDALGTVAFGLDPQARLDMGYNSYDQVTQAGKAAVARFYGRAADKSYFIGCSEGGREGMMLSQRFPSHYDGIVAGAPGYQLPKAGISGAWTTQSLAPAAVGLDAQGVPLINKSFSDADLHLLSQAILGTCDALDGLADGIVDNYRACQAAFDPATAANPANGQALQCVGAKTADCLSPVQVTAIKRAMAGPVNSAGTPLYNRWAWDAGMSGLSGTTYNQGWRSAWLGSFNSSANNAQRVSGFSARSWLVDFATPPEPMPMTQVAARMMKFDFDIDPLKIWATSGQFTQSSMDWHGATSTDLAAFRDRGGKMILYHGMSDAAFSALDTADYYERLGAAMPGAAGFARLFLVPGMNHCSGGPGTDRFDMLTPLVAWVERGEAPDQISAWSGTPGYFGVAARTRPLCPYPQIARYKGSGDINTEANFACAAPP

Molecule: C1CN=C2NCCCN2C1 [TBD, 1,5,7-triazabicyclo[4.4.0]dec-5-ene, reference compound]
collective yield of BHET and MHET [1, 6]: 55.1%
titer of BHET [1, 6]: 328.4 g/L
titer of MHET [1, 6]: 45.9 g/L

Molecule: C[N+](C)(C)CC(=O)O [betaine]
inhibitory effect on IsPETase^Mut enzyme reaction [2]: no inhibitory effect
inhibitory effect on IsMHETase^Mut enzyme reaction [3]: no inhibitory effect
collective yield of BHET and MHET [1, 7]: 34.6%
titer of BHET [1, 7]: 256.8 g/L
titer of MHET [1, 7]: 24.9 g/L
collective yield of BHET and MHET [1, 8]: 26.6%
titer of BHET [1, 8]: 185.3 g/L
collective yield of BHET and MHET [1, 9]: 52.3%
titer of BHET [1, 9]: 330.6 g/L
titer of MHET [1, 9]: 27.6 g/L
collective yield of BHET and MHET [1, 6]: 58.7%
titer of BHET [1, 6]: 368.6 g/L
titer of MHET [1, 6]: 32.8 g/L
collective yield of BHET and MHET [1, 10]: 55.1%
titer of BHET [1, 10]: 341.2 g/L
titer of MHET [1, 10]: 35.1 g/L
collective yield of BHET and MHET [1, 11]: 53.8%
titer of BHET [1, 11]: 313.8 g/L
titer of MHET [1, 11]: 50.4 g/L
collective yield of BHET and MHET [1, 12]: 42.4%
titer of BHET [1, 12]: 286.9 g/L
titer of MHET [1, 12]: 6.8 g/L
collective yield of BHET and MHET [1, 13]: 52.7%
titer of BHET [1, 13]: 307.6 g/L
titer of MHET [1, 13]: 21.6 g/L
collective yield of BHET and MHET [1, 14]: 51.6%
titer of BHET [1, 14]: 268.3 g/L
titer of MHET [1, 14]: 19.1 g/L
collective yield of BHET and MHET [1, 15]: 49.8%
titer of BHET [1, 15]: 189.8 g/L
titer of MHET [1, 15]: 6.7 g/L
collective yield of BHET and MHET [1, 16]: 37.2%
titer of BHET [1, 16]: 81.3 g/L
titer of MHET [1, 16]: 2.9 g/L

pH [4]: 5.47
Molecule: O=C(O)c1ccc(C(=O)O)cc1 [TPA, terephthalic acid]

B1: /sPETase^Wild: wild-type PETase of I. sakaiensis, SEQ ID NO: 3 (protein)
chain: HMQTNPYARGPNPTAASLEASAGPFTVRSFTVSRPSGYGAGTVYYPTNAGGTVGAIAIVPGYTARQSSIKWWGPRLASHGFVVITIDTNSTLDQPSSRSSQQMAALRQVASLNGTSSSPIYGKVDTARMGVMGWSMGGGGSLISAANNPSLKAAAPQAPWDSSTNFSSVTVPTLIFACENDSIAPVNSSALPIYDSMSRNAKQFLEINGGSHSCANSGNSNQALIGKKGVAWMKRFMDNDTRYSTFACENPNSTRVSDFRTANCSLE
modifications: IsMHETase_wt
sum of TPA, MHET and BHET [5]: (0.3 mM

— patent US12559776B2, “Chemical and biological integrated degradation process for polyethylene terephthalate (PET), for recycling pet” (Korea University Research and Business Foundation, priority 2021, dated 2026)
